Experimental data: ChEMBL document CHEMBL1641539 (Bioorg Med Chem Lett, 2011)

Legend:
[1] = target: Mitogen-activated protein kinase 10 (Homo sapiens, UniProt P53779); assay: Inhibition of recombinant JNK3 after 60 mins by TR-FRET assay
[2] = target: Mitogen-activated protein kinase 9 (Homo sapiens, UniProt P45984); assay: Inhibition of recombinant JNK2 after 60 mins by TR-FRET assay
[3] = target: Mitogen-activated protein kinase 8 (Homo sapiens, UniProt P45983); assay: Inhibition of recombinant JNK1 after 60 mins by TR-FRET assay
[4] = target: Mitogen-activated protein kinase 1 (Homo sapiens, UniProt P28482); assay: Inhibition of recombinant ERK2 after 60 mins by TR-FRET assay
[5] = target: Mitogen-activated protein kinase 14 (Homo sapiens, UniProt Q16539); assay: Inhibition of recombinant p38alpha after 60 mins by TR-FRET assay
[6] = Apparent permeability of the compound from apical to basolateral direction in MDCK2 cells at 5 uM after 120 mins; type: ADME, cell-based, Canis lupus familiaris, MDCK-II; details: dog, MDCK
[7] = Efflux ratio, ratio of permeability from apical to basolateral in MDCK2 cells over expressing MDR1 in presence of P-gp inhibitor to permeability from apical to basolateral in MDCK2 cells over expressing MDR1 in absence of P-gp inhibitor at 5 uM after 120 mins; type: ADME, cell-based, Canis lupus familiaris; details: dog, mdck-ii, 2 h
[8] = Oxidative metabolic stability in mouse liver microsomes assessed as compound remaining at 2 uM after 30 mins; type: ADME, Microsome; details: read-out: Stability
[9] = Oxidative metabolic stability in human liver microsomes assessed as compound remaining at 2 uM after 30 mins; type: ADME, Microsome; details: read-out: Stability

Mitogen-activated protein kinase 14, sequence (Q16539 whole entry): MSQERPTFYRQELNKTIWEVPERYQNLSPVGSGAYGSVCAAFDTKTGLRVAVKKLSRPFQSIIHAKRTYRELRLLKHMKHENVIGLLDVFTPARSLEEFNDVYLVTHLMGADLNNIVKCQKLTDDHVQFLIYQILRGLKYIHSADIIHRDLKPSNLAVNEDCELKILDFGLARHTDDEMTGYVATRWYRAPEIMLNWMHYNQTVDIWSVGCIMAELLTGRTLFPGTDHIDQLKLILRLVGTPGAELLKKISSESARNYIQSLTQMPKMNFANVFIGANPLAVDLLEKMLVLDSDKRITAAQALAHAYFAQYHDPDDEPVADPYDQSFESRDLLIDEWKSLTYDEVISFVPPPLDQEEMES
Mitogen-activated protein kinase 1, sequence (P28482 whole entry): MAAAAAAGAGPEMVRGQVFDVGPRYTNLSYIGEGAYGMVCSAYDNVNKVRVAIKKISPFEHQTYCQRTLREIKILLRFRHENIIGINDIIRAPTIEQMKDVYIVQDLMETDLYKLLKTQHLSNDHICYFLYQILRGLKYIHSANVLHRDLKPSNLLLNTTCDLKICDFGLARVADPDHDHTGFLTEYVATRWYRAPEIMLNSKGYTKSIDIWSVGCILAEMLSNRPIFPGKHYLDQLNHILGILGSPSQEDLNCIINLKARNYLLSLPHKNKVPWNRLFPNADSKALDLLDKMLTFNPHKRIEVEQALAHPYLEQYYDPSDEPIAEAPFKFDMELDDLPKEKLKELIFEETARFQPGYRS
Mitogen-activated protein kinase 10, sequence (P53779 whole entry): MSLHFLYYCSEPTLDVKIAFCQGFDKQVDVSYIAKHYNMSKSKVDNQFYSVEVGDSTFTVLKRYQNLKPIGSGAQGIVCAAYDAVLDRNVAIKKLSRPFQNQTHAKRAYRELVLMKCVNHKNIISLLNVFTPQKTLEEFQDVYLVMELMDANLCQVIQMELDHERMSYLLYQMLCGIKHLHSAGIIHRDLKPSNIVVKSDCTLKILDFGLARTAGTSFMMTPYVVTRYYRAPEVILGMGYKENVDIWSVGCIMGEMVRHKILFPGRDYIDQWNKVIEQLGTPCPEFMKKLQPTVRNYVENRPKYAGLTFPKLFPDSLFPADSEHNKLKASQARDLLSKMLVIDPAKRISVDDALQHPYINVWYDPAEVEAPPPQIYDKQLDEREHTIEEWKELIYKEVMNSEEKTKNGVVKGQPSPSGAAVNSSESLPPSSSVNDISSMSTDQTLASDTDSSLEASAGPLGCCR
Mitogen-activated protein kinase 8, sequence (P45983 whole entry): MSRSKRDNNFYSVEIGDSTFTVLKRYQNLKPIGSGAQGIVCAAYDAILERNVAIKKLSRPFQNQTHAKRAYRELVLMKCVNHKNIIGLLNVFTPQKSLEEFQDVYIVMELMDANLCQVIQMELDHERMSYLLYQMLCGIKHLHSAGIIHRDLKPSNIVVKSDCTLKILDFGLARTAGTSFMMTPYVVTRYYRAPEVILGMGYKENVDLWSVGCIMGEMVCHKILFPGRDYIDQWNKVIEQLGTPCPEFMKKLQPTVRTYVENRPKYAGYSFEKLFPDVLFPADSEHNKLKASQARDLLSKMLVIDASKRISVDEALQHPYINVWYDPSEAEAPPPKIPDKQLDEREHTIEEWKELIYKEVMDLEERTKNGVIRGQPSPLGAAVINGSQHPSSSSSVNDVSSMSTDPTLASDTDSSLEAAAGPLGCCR
Mitogen-activated protein kinase 9, sequence (P45984 whole entry): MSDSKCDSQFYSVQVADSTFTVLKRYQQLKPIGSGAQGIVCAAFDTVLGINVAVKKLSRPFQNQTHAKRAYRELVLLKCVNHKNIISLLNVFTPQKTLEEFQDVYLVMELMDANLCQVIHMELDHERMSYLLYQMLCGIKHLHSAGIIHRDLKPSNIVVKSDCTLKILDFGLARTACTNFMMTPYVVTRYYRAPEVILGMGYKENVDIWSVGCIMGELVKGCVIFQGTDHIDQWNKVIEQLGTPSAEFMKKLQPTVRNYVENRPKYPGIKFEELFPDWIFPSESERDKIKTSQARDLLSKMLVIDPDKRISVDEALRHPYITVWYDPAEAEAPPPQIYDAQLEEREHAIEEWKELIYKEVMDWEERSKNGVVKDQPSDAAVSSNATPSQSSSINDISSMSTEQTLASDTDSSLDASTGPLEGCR

Compound | IC50 [1] [nM] | IC50 [2] [nM] | IC50 [3] [µM] | IC50 [4] [µM] | IC50 [5] [µM] | Papp A→B at 2 h, 5 µM [6] [×10⁻⁶ cm/s] | Ratio [7] | remaining at 0.5 h, 2 µM [8] [%] | remaining at 0.5 h, 2 µM [9] [%]
O=c1[nH]nc(-c2ccnc(NC3CCC3)c2)n1-c1ccc2ccccc2c1 | 70 | 220 | 1.8 | > 50 | > 50 | – | – | – | –
O=c1n(C2CCOC2)nc(-c2ccnc(NC3CCOCC3)c2)n1-c1ccc2ccccc2c1 (stereo not given) | 92 | 320 | 3.8 | > 50 | > 50 | 21.8 | 1.6 | 1.6 | 27
O=c1[nH]nc(-c2ccnc(Nc3nccs3)c2)n1-c1ccc2ccccc2c1 | 210 | 650 | > 50 | > 50 | > 50 | – | – | – | –
O=C(Nc1cc(-c2n[nH]c(=O)n2-c2ccc3ccccc3c2)ccn1)c1ccccc1 | 590 | 4400 | > 50 | > 50 | > 50 | – | – | – | –
O=c1n(-c2ccccn2)nc(-c2ccnc(NC3CCOCC3)c2)n1-c1ccc2ccccc2c1 | 100 | 150 | 1.4 | > 50 | > 50 | 5.1 | 1.5 | 1.5 | 59
O=c1n(C2CCNCC2)nc(-c2ccnc(NC3CCOCC3)c2)n1-c1ccc2ccccc2c1 | 160 | 530 | 4.5 | > 5 | > 50 | – | – | – | –
CCN1CCC(n2nc(-c3ccnc(NC4CCOCC4)c3)n(-c3ccc4ccccc4c3)c2=O)CC1 | 280 | 2000 | > 5 | – | – | – | – | – | –
O=c1[nH]nc(-c2ccnc(Nc3cccnc3)c2)n1-c1ccc2ccccc2c1 | 250 | 950 | 3.3 | 14 | > 50 | – | – | – | –
Nc1cccc2ccc(-n3c(-c4ccnc(NC5CCOCC5)c4)n[nH]c3=O)cc12 | 94 | 570 | 2.6 | > 50 | > 50 | – | – | – | –
O=c1[nH]nc(-c2ccnc(Nc3ccccc3)c2)n1-c1ccc2ccccc2c1 | 61 | 470 | 5.7 | > 50 | > 50 | – | – | – | –
O=c1[nH]nc(-c2ccnc(NC3CCOCC3)c2)n1-c1ccc2cc(Br)ccc2c1 | 430 | 780 | 4.2 | > 50 | > 50 | – | – | – | –
O=c1[nH]nc(-c2ccnc(NC3CC3)c2)n1-c1ccc2ccccc2c1 | 130 | 390 | 3.9 | > 50 | > 50 | – | – | – | –
O=c1[nH]nc(-c2ccnc(NC3CCOCC3)c2)n1-c1ccc2cc(F)ccc2c1 | 70 | 190 | 0.74 | > 50 | > 50 | 7.3 | – | 100 | 88
Nc1ccc2cc(-n3c(-c4ccnc(NC5CCOCC5)c4)n[nH]c3=O)ccc2c1 | 950 | 5300 | 1.7 | > 50 | > 50 | – | – | – | –
C[C@H](Nc1cc(-c2n[nH]c(=O)n2-c2ccc3ccccc3c2)ccn1)c1ccccc1 | 3900 | > 5000 | > 5 | > 5 | > 5 | – | – | – | –
O=c1[nH]nc(-c2ccncc2)n1-c1ccc2ccccc2c1 | 16000 | 32000 | > 50 | > 50 | > 50 | – | – | – | –
O=c1[nH]nc(-c2ccnc(NC3CCOCC3)c2)n1-c1ccc2cccc(Cl)c2c1 | 14 | 150 | 0.11 | – | – | – | – | – | –
O=c1[nH]nc(-c2ccnc(NC3CCOCC3)c2)n1-c1ccc2cccc(F)c2c1 | 54 | 380 | > 0.5 | > 50 | > 50 | – | – | – | –
O=c1[nH]nc(-c2ccnc(Nc3ccccn3)c2)n1-c1ccc2ccccc2c1 | 40 | 110 | 2.2 | > 50 | > 50 | – | – | – | –
O=C(Nc1cc(-c2n[nH]c(=O)n2-c2ccc3ccccc3c2)ccn1)C1CC1 | 120 | 440 | 4.6 | > 50 | > 50 | – | – | – | –
O=c1n(CC2CCOCC2)nc(-c2ccnc(NC3CCCCC3)c2)n1-c1ccc2ccccc2c1 | 22 | 61 | 0.42 | > 50 | > 50 | – | – | – | –
COC(=O)N1CCC(n2nc(-c3ccnc(NC4CCOCC4)c3)n(-c3ccc4ccccc4c3)c2=O)CC1 | 24 | 58 | 0.36 | > 5 | > 50 | – | – | – | –
CC(=O)Nc1cc(-c2n[nH]c(=O)n2-c2ccc3ccccc3c2)ccn1 | 410 | 1500 | 7.2 | > 50 | > 50 | – | – | – | –
O=c1n(C2CCN(CC(F)(F)F)CC2)nc(-c2ccnc(NC3CCOCC3)c2)n1-c1ccc2ccccc2c1 | 36 | 170 | 0.9 | – | – | – | – | – | –
O=c1[nH]nc(-c2ccnc(NC3CCCC3)c2)n1-c1ccc2ccccc2c1 | 130 | 350 | > 50 | > 50 | > 50 | – | – | – | –
